Measured values from US20220079912A1, “ANTICANCER FORMULATION” (University of Mississippi, priority 2018, published 2022).

Assays:
KB (HeLa) = experiment: Combination cytotoxicity with phenformin; type: cell-based; conditions: data not shown
Colo320DM colon cancer = experiment: Colony formation assay, combination with DHEA; type: cell-based, human; conditions: 24 h, FIG. 20
T98G cells [1] = experiment: Combination cytotoxicity with mitochondrial complex I inhibitors (% cell survival)
From the text: Example 2: Gnetin H In Combination with Mitochondrial Complex I Inhibitors. […] The plus signs above the combination treatment bars indicates the value of % cell survival if the anti-proliferative effect was additive.
In FIGS. 9 A-B., the plus signs are placed above the combination treatment bars at the % cell survival value if the anti-proliferative effect was additive. […] Both T98G and MDA-MB-231 cells lack functional p53 but B16 are p53 wild type.
Example 4: Peony Seed extract. […] T98G cells were treated with different concentrations of purified GH (numbers indicate μM) or PSE (numbers indicate μg/ml) alone or in combination with a Paw Paw (PP) extract (2 μg/ml) for 48 hrs (FIG. 12 A). The plus signs are placed above the combination treatment bars at the % cell survival value if the anti-proliferative effect was additive. […] T98G cells were treated with different concentrations of purified GH or PSE in combination with a Paw Paw extract (2 μg/ml) for 48 hrs (FIG. 12 B).

[2] = test system: BNC3 patient derived Glioblastoma cells; experiment: Colony formation assay, combination with DHEA; type: cell-based, human; conditions: BNC3, 24 h, FIG. 20
[3] = test system: BNC16 patient derived Glioblastoma cells; experiment: Colony formation assay, combination with DHEA; type: cell-based, human; conditions: BNC16, 24 h, FIG. 20
[4] = test system: cancer stem cells (CSCs) grown from BNC3 patient derived Glioblastoma cells; experiment: Cell viability by Trypan Blue exclusion cell count, combination with DHEA; type: cell-based, human; conditions: 24 h, FIGS. 21A-B
T98G cells [5] = experiment: Glucose transport (2-NBDG accumulation); type: cell-based, human; conditions: treated for one hour followed by 2-NBDG for one hour
[6] = test system: T98G human glioblastoma cells; experiment: Lactic acid accumulation in cell culture medium; type: cell-based; conditions: FIG. 2B
TXNIP protein levels = experiment: Western blot of TXNIP protein, T98G cell line; type: cell-based, human; conditions: FIG. 15, FIG. 17
From the text: AMPK activation has been previously shown to phosphorylate and cause the degradation of TXNIP during energy stress (13).

T98G cells [7] = experiment: Apoptosis, annexin V/propidium iodide (PI) staining; type: cell-based, human; conditions: FIG. 10
From the text: This additional target remains to be identified.

B16 mouse melanoma cells = experiment: Lactic acid accumulation in cell culture medium; type: cell-based; conditions: B16, FIG. 2A
From the text: During cell survival experiments the acidification of the cell culture medium was inhibited when GH was present. Acidification of the cell culture medium occurs because of the enhanced use of glycolysis by transformed cells (and resulting increase in lactic acid production). This led us to investigate whether GH reduced lactic acid levels in the cell culture medium.

[8] = test system: BNC41 patient derived Glioblastoma cells; experiment: Colony formation assay, combination with DHEA; type: cell-based, human; conditions: BNC41, 24 h, FIG. 20
B16 cells = experiment: Glucose transport (2-NBDG accumulation); type: cell-based, mouse; conditions: B16, treated for one hour followed by 2-NBDG for one hour

Q: Oc1ccc(/C=C/c2c3c(cc4c2[C@H](c2cc(O)cc(O)c2)[C@@H](c2ccc(O)cc2)O4)O[C@H](c2ccc(O)cc2)[C@H]3c2cc(O)cc(O)c2)cc1 (relative stereo) [GH, trans-Gnetin H] was tested. Which “synergistic cytotoxicity with phenformin” value (KB (HeLa)) did it give?
A: synergistically cytotoxic

Q: What about the “cytotoxicity in combination with DHEA (cell staining)” value (“cytotoxicity … (cell staining)” for short) (Colo320DM colon cancer) of the same compound?
A: cytotoxic

Q: What about the “synergistic cytotoxicity in combination with Paw Paw (PP) extract (2 μg/ml)” value (T98G cells [1]) of the same compound?
A: exhibited synergistic cytotoxicity

Q: What about the “synergistic cytotoxicity in combination with acetogenins (PP) at 1 μg/ml” value (T98G cells [1]) of the same compound?
A: synergistically cytotoxic

Q: And the “IC50 in combination with PP” value (T98G cells [1]; T98G, Paw Paw extract 2 μg/ml, 48 hrs, FIG. 12 B)?
A: 1.3 µg/mL

Q: And the “cytotoxicity … (cell staining)” value [2]?
A: cytotoxic

Q: What about the “cytotoxicity … (cell staining)” value [3] of the same compound?
A: cytotoxic

Q: And the “cytotoxicity in combination with DHEA (percentage of cell viability)” value [4]?
A: cytotoxic

Q: What about the “effect on accumulation of 2-NBDG (glucose transport)” value (T98G cells [5]) of the same compound?
A: did not influence the accumulation

Q: And the lactic acid production [6]?
A: inhibits lactic acid production

Q: What about the “TXNIP protein levels, in combination with Ph” value (TXNIP protein levels) of the same compound?
A: reduction of TXNIP protein levels

Q: And the “TXNIP protein levels, agent alone” value (TXNIP protein levels; GH 8 μM 6 hrs or 3 hrs, 2-DG 25 mM, OXA 25 mM, BPX 25 μM, DCA 25 mM, 6 hr)?
A: dramatic reduction in the levels of TXNIP protein

Q: And the “induction of apoptosis in combination with Paw Paw extract (PP)” value (T98G cells [7])?
A: extensive induction of apoptosis

Q: And the “induction of apoptosis in combination with phenformin (Ph)” value (T98G cells [7])?
A: extensive induction of apoptosis

Q: And the lactic acid production (B16 mouse melanoma cells)?
A: inhibits lactic acid production

Q: And the “cytotoxicity … (cell staining)” value [8]?
A: cytotoxic

Q: And the “effect on accumulation of 2-NBDG (glucose transport)” value (B16 cells)?
A: did not influence the accumulation
